Legend:
[1] = tested on: patients receiving icosapent ethyl therapy; test: Postmarket safety analysis of icosapent ethyl (VASCEPA); type: in vivo, human
Description: Over 320,000 patients are currently receiving icosapent ethyl (referenced interchangeably with AMR101 or VASCEPA®) therapy. With over 7 years of postmarket experience, there have been no signals necessitating a label change and no actions taken for safety reasons. Of the patients undergoing treatment with icosapent ethyl, a total of 1,204 unique adverse events (AEs) have been reported. However, there have been no signals of atrial fibrillation and flutter identified in the postmarket reports.

[2] = tested on: hypertriglyceridemic patients with cardiovascular disease or at high risk for cardiovascular disease; test: REDUCE-IT: bleeding-related adverse events (serious and any, by category, preferred term, antithrombotic medication, fatal association); type: in vivo
Description: Adverse Events of Special Interest: Bleeding-related adverse events, glucose control (fasting blood glucose and HbA1c), and indicators of hepatic disorders (e.g., ALT or AST increases >3×ULN, total bilirubin increases of ≥2×ULN) were summarized separately and compared between treatment groups.
Due to the convergence of clinical events shortly before a patient's death, direct causality of an individual bleeding event with death cannot always be determined. Bleeding-related clinical events (i.e., TEAEs, SAEs, or positively adjudicated endpoints) that occurred proximal to death (per site Investigator, CEC, or Sponsor medical assessment) are presented in Table 82 and occurred in 23 (0.6%) patients in the AMR101 group and 34 (0.8%) patients in the placebo group, with no statistically significant difference between treatment groups (p=0.18). Sponsor medical assessment classified 20 (0.5%) patients in the AMR101 group and 23 (0.6%) patients in the placebo group as having a bleeding event that likely contributed to death, with no statistically significant difference between treatment groups (p=0.76). […] None of these 57 deaths were associated with study drug per Investigator assessment; one bleeding event in each treatment group was considered possibly related to study drug per Investigator assessment.
A summary of baseline or on-treatment anti-thrombic medication use by type in patients with serious bleeding events for the ITT population is provided in Tables 97A-97D.

In the case of CC/C=C\C/C=C\C/C=C\C/C=C\C/C=C\CCCC(=O)OCC [AMR101, eicosapentaenoic acid ethyl ester], the “Individual serious AEs” value ([1]; human, in vivo) is reported as 69, the “Serious and unexpected AE reports” value ([1]; human, in vivo) is reported as 48 and the “Unique adverse events (AEs) reported” value ([1]; human, in vivo) is reported as 1,204. The “Unique nonserious AEs” value ([1]; human, in vivo) was 1,156, the “Reports with fatal outcomes” value ([1]; postmarket) was “Four” and the “Bleeding event that did not likely contribute to death (Sponsor medical assessment), patients” value ([2]; Safety population) was 3 (0.1%) n (%). For the same molecule, the “Bleeding event that likely contributed to death (Sponsor medical assessment), patients” value ([2]; Safety population) was 20 (0.5%) n (%), the “Bleeding-related clinical events that occurred proximal to death, patients” value ([2]; Safety population) was 23 (0.6%) n (%) and the Fatal bleeding events ([2]; Safety population) was “no fatal bleeding events”. The “Bleeding Not Likely Contributing to a Fatal Event, %” value ([2]; Safety population N = 4089, P-value 0.06) was “(0.1) %”, the “Any Bleeding with a Possible Fatal Association, %” value ([2]; Safety population N = 4089, P-value 0.18) was “(0.6) %” and the “Bleeding Likely Contributing to a Fatal Event, %” value ([2]; Safety population N = 4089, P-value 0.76) was “(0.5) %”. For the same molecule, the Fatal bleeding events ([2]; Safety population, listed as icosapent ethyl) was “no fatal bleeding observed in either group”, the “Bleeding TEAEs, %” value ([2]; human, in vivo) was “(11.8) %” and the “Bleeding-related disorders (bleeding TEAEs), patients” value ([2]; human, in vivo) was 11.8%. The “Patients with any serious bleeding TEAE, % patients” value ([2]; human, in vivo) was “(2.7) %”, the “Patients with any serious bleeding TEAE, n patients” value ([2]; human, in vivo) was 111 and the “Patients with serious CNS bleeding, % patients” value ([2]; human, in vivo) was “(0.3) %”. The “Patients with serious CNS bleeding, n patients” value ([2]; human, in vivo) was 14, the “Patients with serious Gl bleeding, % patients” value ([2]; human, in vivo) was “(1.5) %” and the “Patients with serious Gl bleeding, n patients” value ([2]; human, in vivo) was 62. The “Patients with serious other bleeding, % patients” value ([2]; human, in vivo) was “(1.0) %”, the “Patients with serious other bleeding, n patients” value ([2]; human, in vivo) was 41 and the “Serious GI hemorrhage, patients” value ([2]; human, in vivo) was 0.6%. For the same molecule, the “Serious bleeding TEAE: Aortic Aneurysm Rupture” value ([2]; human, in vivo) was 1 (0.0%) n (%), the “Serious bleeding TEAE: Bleeding related disorders” value ([2]; human, in vivo) was 111 (2.7%) n (%) and the “Serious bleeding TEAE: Brain Contusion” value ([2]; human, in vivo) was 0 (0.0%) n (%). For the same molecule, the “Serious bleeding TEAE: Catheter Site Hemorrhage” value ([2]; human, in vivo) was 0 (0.0%) n (%), the “Serious bleeding TEAE: Central nervous system bleeding” value ([2]; human, in vivo) was 14 (0.3%) n (%) and the “Serious bleeding TEAE: Cerebral Hemorrhage” value ([2]; human, in vivo) was 0 (0.0%) n (%). The “Serious bleeding TEAE: Cystitis Hemorrhagic” value ([2]; human, in vivo) was 2 (0.0%) n (%), the “Serious bleeding TEAE: Diverticulitis Intestinal Hemorrhagic” value ([2]; human, in vivo) was 0 (0.0%) n (%) and the “Serious bleeding TEAE: Diverticulum Intestinal Hemorrhagic” value ([2]; human, in vivo) was 3 (0.1%) n (%). For the same molecule, the “Serious bleeding TEAE: Duodenal Ulcer Hemorrhage” value ([2]; human, in vivo) was 2 (0.0%) n (%), the “Serious bleeding TEAE: Ecchymosis” value ([2]; human, in vivo) was 1 (0.0%) n (%) and the “Serious bleeding TEAE: Epistaxis” value ([2]; human, in vivo) was 7 (0.2%) n (%). For the same molecule, the “Serious bleeding TEAE: Esophageal Hemorrhage” value ([2]; human, in vivo) was 0 (0.0%) n (%), the “Serious bleeding TEAE: Extravasation Blood” value ([2]; human, in vivo) was 1 (0.0%) n (%) and the “Serious bleeding TEAE: Gastric Hemorrhage” value ([2]; human, in vivo) was 1 (0.0%) n (%). For the same molecule, the “Serious bleeding TEAE: Gastric Ulcer Hemorrhage” value ([2]; human, in vivo) was 3 (0.1%) n (%), the “Serious bleeding TEAE: Gastrointestinal Angiodysplasia Hemorrhagic” value ([2]; human, in vivo) was 1 (0.0%) n (%) and the “Serious bleeding TEAE: Gastrointestinal bleeding” value ([2]; human, in vivo) was 62 (1.5%) n (%). The “Serious bleeding TEAE: Genital Hemorrhage” value ([2]; human, in vivo) was 1 (0.0%) n (%), the “Serious bleeding TEAE: Hemarthrosis” value ([2]; human, in vivo) was 0 (0.0%) n (%) and the “Serious bleeding TEAE: Hematemesis” value ([2]; human, in vivo) was 3 (0.1%) n (%). The “Serious bleeding TEAE: Hematochezia” value ([2]; human, in vivo) was 1 (0.0%) n (%), the “Serious bleeding TEAE: Hematoma” value ([2]; human, in vivo) was 1 (0.0%) n (%) and the “Serious bleeding TEAE: Hemoptysis” value ([2]; human, in vivo) was 1 (0.0%) n (%). The “Serious bleeding TEAE: Hemorrhagic Anemia” value ([2]; human, in vivo) was 4 (0.1%) n (%), the “Serious bleeding TEAE: Hemorrhagic Duodenitis” value ([2]; human, in vivo) was 0 (0.0%) n (%) and the “Serious bleeding TEAE: Hemorrhagic Transformation Stroke” value ([2]; human, in vivo) was 1 (0.0%) n (%). The “Serious bleeding TEAE: Hemorrhoidal Hemorrhage” value ([2]; human, in vivo) was 3 (0.1%) n (%), the “Serious bleeding TEAE: Hemothorax” value ([2]; human, in vivo) was 1 (0.0%) n (%) and the “Serious bleeding TEAE: Immune Thrombocytopenic Purpura” value ([2]; human, in vivo) was 0 (0.0%) n (%). For the same molecule, the “Serious bleeding TEAE: Intra-Abdominal Hemorrhage” value ([2]; human, in vivo) was 1 (0.0%) n (%), the “Serious bleeding TEAE: Intracranial Hemorrhage” value ([2]; human, in vivo) was 0 (0.0%) n (%) and the “Serious bleeding TEAE: Large Intestinal Hemorrhage” value ([2]; human, in vivo) was 1 (0.0%) n (%). For the same molecule, the “Serious bleeding TEAE: Lower Gastrointestinal Hemorrhage” value ([2]; human, in vivo) was 5 (0.1%) n (%), the “Serious bleeding TEAE: Mallory-Weiss Syndrome” value ([2]; human, in vivo) was 1 (0.0%) n (%) and the “Serious bleeding TEAE: Melaena” value ([2]; human, in vivo) was 3 (0.1%) n (%). For the same molecule, the “Serious bleeding TEAE: Menorrhagia” value ([2]; human, in vivo) was 1 (0.0%) n (%), the “Serious bleeding TEAE: Mouth Hemorrhage” value ([2]; human, in vivo) was 0 (0.0%) n (%) and the “Serious bleeding TEAE: Other bleeding” value ([2]; human, in vivo) was 41 (1.0%) n (%). For the same molecule, the “Serious bleeding TEAE: Pancreatitis Hemorrhagic” value ([2]; human, in vivo) was 1 (0.0%) n (%) and the “Serious bleeding TEAE: Peptic Ulcer Hemorrhage” value ([2]; human, in vivo) was 1 (0.0%) n (%).

— patent US12427134B2, “Methods of reducing the risk of cardiovascular events in a subject with atrial fibrillation and/or atrial flutter” (priority 2019, dated 2025)
